Assay results: publication PMC6099740, “Design, Synthesis and Biological Evaluation of 6,7-Disubstituted-4-phenoxyquinoline Derivatives Bearing Pyridazinone Moiety as c-Met Inhibitors” (Molecules : A Journal of Synthetic Chemistry and Natural …, 2018)
Entries after “also recorded” stand apart in the source; their conditions may differ.

How the values were obtained:
HepG2 cells [1] = experiment: MTT cytotoxicity assay, HepG2; format: cell-based; conditions: Homo sapiens, 72 h
Protocol: (§1) The results expressed as IC50 values were summarized in Table 1, and the values were the average of at least two independent experiments.
(§2) The cancer cell lines were cultured in minimum essential medium (MEM) supplement with 10% fetal bovine serum (FBS). Approximately 4 × 10^3 cells, suspended in MEM medium, were plated onto each well of a 96-well plate and incubated in 5% CO2 at 37 °C for 24 h. The test compounds at indicated final concentrations were added to the culture medium and the cell cultures were continued for 72 h. Fresh MTT was added to each well at a terminal concentration of 5 μg/mL and incubated with cells at 37 °C for 4 h. The formazan crystals were dissolved in 100 μL DMSO each well, and the absorbency at 492 nm (for absorbance of MTT formazan) and 630 nm (for the reference wavelength) was measured with the ELISA reader. All of the compounds were tested two times in each of the cell lines. The results expressed as inhibition rates or IC50 (half-maximal inhibitory concentration) were the averages of two determinations and calculated by using the Bacus Laboratories Incorporated Slide Scanner (Bliss) software (the Bacus Laboratories Inc. Slide Scanner (BLISS) system, Lombard, IL, USA)..

c-Met kinase [2] = target: T1, c-Met kinase (Homo sapiens, UniProt P08581); experiment: c-Met kinase inhibition assay (HTRF; mobility shift)
T1 sequence (P08581 25-1390): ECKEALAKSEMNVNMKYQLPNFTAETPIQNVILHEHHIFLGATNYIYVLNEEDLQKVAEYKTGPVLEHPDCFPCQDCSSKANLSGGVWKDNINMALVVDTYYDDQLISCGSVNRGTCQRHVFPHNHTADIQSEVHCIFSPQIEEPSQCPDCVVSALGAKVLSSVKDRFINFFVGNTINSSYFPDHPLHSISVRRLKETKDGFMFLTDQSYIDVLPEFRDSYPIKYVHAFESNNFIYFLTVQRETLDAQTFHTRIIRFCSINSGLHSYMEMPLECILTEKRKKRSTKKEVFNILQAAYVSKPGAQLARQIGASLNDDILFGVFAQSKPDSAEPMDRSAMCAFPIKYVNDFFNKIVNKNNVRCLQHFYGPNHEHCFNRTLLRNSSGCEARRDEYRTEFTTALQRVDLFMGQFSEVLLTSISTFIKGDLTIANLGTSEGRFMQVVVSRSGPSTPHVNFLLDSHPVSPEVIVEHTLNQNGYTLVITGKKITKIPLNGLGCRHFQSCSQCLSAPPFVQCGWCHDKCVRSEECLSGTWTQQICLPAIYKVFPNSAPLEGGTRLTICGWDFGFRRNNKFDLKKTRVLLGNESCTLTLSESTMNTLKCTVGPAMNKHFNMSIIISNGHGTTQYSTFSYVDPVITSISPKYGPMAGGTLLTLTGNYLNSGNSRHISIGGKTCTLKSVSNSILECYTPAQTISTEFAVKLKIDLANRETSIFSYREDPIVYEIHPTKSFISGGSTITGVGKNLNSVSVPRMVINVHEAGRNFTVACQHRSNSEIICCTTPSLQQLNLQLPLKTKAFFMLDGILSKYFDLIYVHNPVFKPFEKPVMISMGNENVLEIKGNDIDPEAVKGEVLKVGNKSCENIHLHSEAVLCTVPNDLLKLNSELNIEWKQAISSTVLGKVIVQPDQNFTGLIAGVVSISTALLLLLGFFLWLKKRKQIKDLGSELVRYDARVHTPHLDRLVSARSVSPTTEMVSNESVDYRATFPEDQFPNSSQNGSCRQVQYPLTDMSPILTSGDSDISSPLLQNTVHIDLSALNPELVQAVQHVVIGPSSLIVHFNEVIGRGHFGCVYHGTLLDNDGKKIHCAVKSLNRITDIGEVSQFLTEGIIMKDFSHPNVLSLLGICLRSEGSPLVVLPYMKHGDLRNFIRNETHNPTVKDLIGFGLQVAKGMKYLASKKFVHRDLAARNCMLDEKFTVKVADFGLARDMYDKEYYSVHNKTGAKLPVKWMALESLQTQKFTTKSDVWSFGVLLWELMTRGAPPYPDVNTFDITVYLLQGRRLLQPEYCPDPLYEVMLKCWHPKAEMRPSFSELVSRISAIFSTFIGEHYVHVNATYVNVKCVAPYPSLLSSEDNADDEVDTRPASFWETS
Protocol: All kinase assays were performed in 96-well plates in a 50 µL reaction volume. The kinase buffer contains 50 mM HEPES, pH 7.5, 10 mM MgCl2, 0.0015% Brij-35 and 2 mM DTT. The stop buffer contains 100 mM HEPES, pH 7.5, 0.015% Brij-35, 0.2% Coating Reagent 3 and 50 mM EDTA. Dilute the compounds to 500 µM by 100% DMSO, then transfer 10 µL of compound to a new 96-well plate as the intermediate plate, add 90 µL kinase buffer to each well. Transfer 5 µL of each well of the intermediate plate to 384-well plates. The following amounts of enzyme and substrate were used per well: kinase base buffer, FAM-labeled peptide, ATP and enzyme solution. Wells containing the substrate, enzyme, DMSO without compound were used as DMSO control. Wells containing just the substrate without enzyme were used as low control. Incubate at room temperature for 10 min. Add 10 µL peptide solution to each well. […] At last collect data on Caliper program and convert conversion values to inhibition values. Percent inhibition = (max − conversion)/(max − min) × 100. ‘max’ stands for DMSO control; ‘min’ stands for low control [20].

A549 cells = experiment: MTT cytotoxicity assay, A549; format: cell-based; conditions: Homo sapiens, 72 h
Protocol: as §1
(§3) The cancer cell lines were cultured in minimum essential medium (MEM) supplement with 10% fetal bovine serum (FBS). […] The test compounds at indicated final concentrations were added to the culture medium and the cell cultures were continued for 72 h. […] All of the compounds were tested two times in each of the cell lines. The results expressed as inhibition rates or IC50 (half-maximal inhibitory concentration) were the averages of two determinations and calculated by using the Bacus Laboratories Incorporated Slide Scanner (Bliss) software (the Bacus Laboratories Inc. Slide Scanner (BLISS) system, Lombard, IL, USA)..

MCF-7 cells = experiment: MTT cytotoxicity assay, MCF-7; format: cell-based; conditions: Homo sapiens, MCF7, 72 h
Protocol: as §1, §3

A549, HepG2, MCF-7 = experiment: MTT cytotoxicity assay, range over the three cancer cell lines; format: cell-based; conditions: Homo sapiens; range over A549, HepG2 and MCF-7
Protocol: as §1, §2

HepG2 cells [3] = experiment: Acridine orange (AO) single staining, nuclear morphology; format: cell-based, human; conditions: 0.01 μM, 12 h
Protocol: Potential compound 53 was selected for validation and evaluation of inhibition of cell proliferation and induction of apoptosis in HepG2 cells. […] Moreover, from the results of the inverted fluorescence microscopy, it can be observed that the cells in the control group (Figure 3a) were full and the edge was clear, which was added without nothing.
The cancer cell lines were cultured in minimum essential medium (MEM) supplement with 10% fetal bovine serum (FBS). Approximately 2 × 10^4 cells, suspended in MEM medium, were plated onto each well of a 24-well plate and incubated in 5% CO2 at 37 °C for 24 h. Then the medium was removed, and 1 mL drug-free medium and 1mL medium with the test compound 7c at indicated final concentrations were added to each well in control group and test group respectively and the cell cultures were continued for 12 h. While the medium was removed, AO-PBS buffer was added to each well at a terminal concentration of 10 µg/mL and stained in dark for 10 min. Each well was washed with PBS buffer three times and observed under a fluorescence microscope.
Figure 3 The cell morphology of HepG2 cells of the control and test groups. (a) HepG2 cells treated without any compounds; (b) HepG2 cells were treated with 0.01 µM for 12 h; Changes of nuclear morphology were determined by AO staining.

c-Met kinase [4] = target: T1, c-Met kinase; design: method as in PMID 28384549; conditions: previous research; cited from earlier work

| IC50 (c-Met kinase [2]) | melting point | Structure (SMILES) | IC50 (HepG2 cells [1]) | IC50 (A549 cells) | IC50 (MCF-7 cells) | IC50 (A549, HepG2, MCF-7) | Inhibition of proliferation and induction of apoptosis (AO staining) (HepG2 cells [3]) | enzyme activity IC50 values (c-Met kinase [4]) |
| --- | --- | --- | --- | --- | --- | --- | --- | --- |
| 0.8 nM | 211.7 to 212.6 °C | COc1cc2c(Oc3ccc(NC(=O)c4nn(-c5ccc(Cl)c(C(F)(F)F)c5)ccc4=O)cc3F)ccnc2cc1OCCCN1CCN(C)CC1 [Compound 52, 1-(4-Chloro-3-(trifluoromethyl)phenyl)-N-(3-fluoro-4-((6-methoxy-7-(3-(4-methylpiperazin-1-yl)propoxy)quinolin-4-yl)oxy)phenyl)-4-oxo-1,4-dihydropyridazine-3-carboxamide] | 330 ± 30 nM | 40 ± 10 nM | 150 ± 20 nM | 2 to 1030 nM | – | – |
| 2 nM | 115.8 to 117.3 °C | COc1cc2c(Oc3ccc(NC(=O)c4nn(-c5ccc(Br)cc5F)ccc4=O)cc3F)ccnc2cc1OCCCN1CCC(C)CC1 [Compound 43, 1-(4-Bromo-2-fluorophenyl)-N-(3-fluoro-4-((6-methoxy-7-(3-(4-methylpiperidin-1-yl)propoxy)quinolin-4-yl)oxy)phenyl)-4-oxo-1,4-dihydropyridazine-3-carboxamide] | 3 ± 1 nM | 30 ± 10 nM | 5 ± 1 nM | 2 to 1030 nM | – | – |
| 1.2 nM | 112.5 to 113.7 °C | COc1cc2c(Oc3ccc(NC(=O)c4nn(-c5ccc(F)c(Cl)c5)ccc4=O)cc3F)ccnc2cc1OCCCN1CCC(C)CC1 [Compound 42, 1-(3-Chloro-4-fluorophenyl)-N-(3-fluoro-4-((6-methoxy-7-(3-(4-methylpiperidin-1-yl)propoxy)quinolin-4-yl)oxy)phenyl)-4-oxo-1,4-dihydropyridazine-3-carboxamide] | 1030 ± 10 nM | 5 ± 1 nM | 7 ± 1 nM | 2 to 1030 nM | – | – |
| 0.9 nM | 145.1 to 146.3 °C | COc1ccc(-n2ccc(=O)c(C(=O)Nc3ccc(Oc4ccnc5cc(OCCCN6CCC(C)CC6)c(OC)cc45)c(F)c3)n2)cc1 [Compound 41, N-(3-Fluoro-4-((6-methoxy-7-(3-(4-methylpiperidin-1-yl)propoxy)quinolin-4-yl)oxy)phenyl)-1-(4-methoxyphenyl)-4-oxo-1,4-dihydropyridazine-3-carboxamide] | 8 ± 1 nM | 20 ± 10 nM | 20 ± 10 nM | 2 to 1030 nM | – | – |
| 4 nM | 152.3 to 153.1 °C | COc1cc2c(Oc3ccc(NC(=O)c4nn(-c5ccccc5)ccc4=O)cc3F)ccnc2cc1OCCCN1CCCCC1 [Compound 37, N-(3-Fluoro-4-((6-methoxy-7-(3-(piperidin-1-yl)propoxy)quinolin-4-yl)oxy)phenyl)-4-oxo-1-phenyl-1,4-dihydropyridazine-3-carboxamide] | 180 ± 10 nM | 60 ± 10 nM | 30 ± 10 nM | 2 to 1030 nM | – | – |
| > 500 nM | 159.7 to 161.2 °C | COc1cc2c(Oc3ccc(NC(=O)c4nn(-c5ccc(Br)cc5)ccc4=O)cc3F)ccnc2cc1OCCCN1CCN(C)CC1 [Compound 48, 1-(4-Bromophenyl)-N-(3-fluoro-4-((6-methoxy-7-(3-(4-methylpiperazin-1-yl)propoxy)quinolin-4-yl)oxy)phenyl)-4-oxo-1,4-dihydropyridazine-3-carboxamide] | > 50000 nM | > 50000 nM | > 50000 nM | – | – | – |
| 17 nM | 149.4 to 151.1 °C | COc1cc2c(Oc3ccc(NC(=O)c4nn(-c5ccc(F)cc5)ccc4=O)cc3F)ccnc2cc1OCCCN1CCCCC1 [Compound 30, N-(3-Fluoro-4-((6-methoxy-7-(3-(piperidin-1-yl)propoxy)quinolin-4-yl)oxy)phenyl)-1-(4-fluorophenyl)-4-oxo-1,4-dihydropyridazine-3-carboxamide] | 990 ± 10 nM | 310 ± 10 nM | 690 ± 20 nM | – | – | – |
| 78 nM | 167.5 to 169.1 °C | COc1ccc(-n2ccc(=O)c(C(=O)Nc3ccc(Oc4ccnc5cc(OCCCN6CCN(C)CC6)c(OC)cc45)c(F)c3)n2)cc1 [Compound 49, 1-(4-((l1-Oxidanyl)-l5-methyl)phenyl)-N-(3-fluoro-4-((6-methoxy-7-(3-(4-methylpiperazin-1-yl)propoxy)quinolin-4-yl)oxy)phenyl)-4-oxo-1,4-dihydropyridazine-3-carboxamide] | 3680 ± 570 nM | 9120 ± 960 nM | 8120 ± 910 nM | – | – | – |
| 56 nM | 105.4 to 106.5 °C | COc1ccc(-n2ccc(=O)c(C(=O)Nc3ccc(Oc4ccnc5cc(OCCCN6CCCCC6)c(OC)cc45)c(F)c3)n2)cc1 [Compound 33, N-(3-Fluoro-4-((6-methoxy-7-(3-(piperidin-1-yl)propoxy)quinolin-4-yl)oxy)phenyl)-1-(4-methoxyphenyl)-4-oxo-1,4-dihydropyridazine-3-carboxamide] | 630 ± 80 nM | 2780 ± 440 nM | 2350 ± 370 nM | – | – | – |
| 47 nM | 152.3 to 153.5 °C | COc1cc2c(Oc3ccc(NC(=O)c4nn(-c5ccc(F)cc5)ccc4=O)cc3F)ccnc2cc1OCCCN1CCOCC1 [Compound 22] | 2230 ± 350 nM | 250 ± 10 nM | 210 ± 20 nM | – | – | – |
| 0.6 nM | – | COc1cc2c(Oc3ccc(NC(=O)c4nn(-c5ccccc5)ccc4=O)cc3F)ccnc2cc1OCCCN1CCN(C)CC1 [Compound 53, N-(3-Fluoro-4-((6-methoxy-7-(3-(4-methylpiperazin-1-yl)propoxy)quinolin-4-yl)oxy)phenyl)-4-oxo-1-phenyl-1,4-dihydropyridazine-3-carboxamide] | 490 ± 30 nM | 3 ± 1 nM | 6 ± 1 nM | 2 to 1030 nM | significantly inhibited HepG2 cells proliferation and induced apoptosis; also recorded: could induce remarkable apoptosis of HepG2 cells | – |
| – | – | Cc1cc(=O)n(-c2ccc(F)cc2)nc1C(=O)Nc1ccc(Oc2ccnc3[nH]ccc23)c(F)c1 [Compound 7] | – | – | – | – | – | in the nanomole level |
| 187 nM | 148.5 to 150.1 °C | COc1cc2c(Oc3ccc(NC(=O)c4nn(-c5ccccc5)ccc4=O)cc3F)ccnc2cc1OCCCN1CCC(C)CC1 [Compound 45, N-(3-Fluoro-4-((6-methoxy-7-(3-(4-methylpiperidin-1-yl)propoxy)quinolin-4-yl)oxy)phenyl)-4-oxo-1-phenyl-1,4-dihydropyridazine-3-carboxamide] | 4660 ± 670 nM | 2950 ± 470 nM | 2010 ± 300 nM | – | – | – |
| 246 nM | 141.3 to 143.4 °C | COc1cc2c(Oc3ccc(NC(=O)c4nn(-c5ccc(Br)cc5)ccc4=O)cc3F)ccnc2cc1OCCCN1CCCCC1 [Compound 32, 1-(4-Bromophenyl)-N-(3-fluoro-4-((6-methoxy-7-(3-(piperidin-1-yl)propoxy)quinolin-4-yl)oxy)phenyl)-4-oxo-1,4-dihydropyridazine-3-carboxamide] | 1750 ± 240 nM | 2890 ± 460 nM | 2450 ± 390 nM | – | – | – |
| 233 nM | 153.8 to 155.2 °C | COc1ccc(-n2ccc(=O)c(C(=O)Nc3ccc(Oc4ccnc5cc(OCCCN6CCOCC6)c(OC)cc45)c(F)c3)n2)cc1 [Compound 25, N-(3-Fluoro-4-((6-methoxy-7-(3-morpholinopropoxy)quinolin-4-yl)oxy)phenyl)-1-(4-methoxyphenyl)-4-oxo-1,4-dihydropyridazine-3-carboxamide] | 6750 ± 820 nM | 4240 ± 620 nM | 27200 ± 1440 nM | – | – | – |
| > 500 nM | 125.7 to 127.1 °C | COc1cc2c(Oc3ccc(NC(=O)c4nn(-c5ccc(Br)cc5)ccc4=O)cc3F)ccnc2cc1OCCCN1CCOCC1 [Compound 24, 1-(4-Bromophenyl)-N-(3-fluoro-4-((6-methoxy-7-(3-morpholinopropoxy)quinolin-4-yl)oxy)phenyl)-4-oxo-1,4-dihydropyridazine-3-carboxamide] | > 50000 nM | > 50000 nM | > 50000 nM | – | – | – |
